A compilation of properties of binary mixtures (doi:10.1021/je7001804)

Test: xn = mol fraction of the nth substance listed
Conditions: 101 kPa

CC[n+]1ccn(C)c1.O=S(=O)([O-])C(F)(F)F + CCCO
speed of sound [m/s]
Conditions	278.15 K	288.15 K	298.15 K	308.15 K	318.15 K	328.15 K	338.15 K
x2 = 0.049	1475.1	1451.2	1428.3	1405.9	–	1362.5	1341.4
x2 = 0.1095	1465.8	1441.9	1419	–	1374.5	–	1331.7
x2 = 0.1497	1459	1435.5	1412.7	1390.3	1368.2	–	1325.3
x2 = 0.2004	1450.3	1426.7	–	–	1359.3	1337.6	1316.5
x2 = 0.3	1432.3	1408.4	1385.2	1362.3	1340	1317.9	1296.2
x2 = 0.3993	–	1388	1364.3	1341.1	1318.4	1295.9	1273.9
x2 = 0.499	1389.2	1364.6	1340.5	1316.9	1293.6	1270.7	1248.1
x2 = 0.6007	1363.1	1337.9	1313.4	1289.2	–	1241.7	1218.3
x2 = 0.6998	1335.8	–	1284.3	–	1234.2	1209.5	1185
x2 = 0.7996	1308.3	–	1253.7	1227	1200.5	1174.3	1148.2
x2 = 0.8496	1296	1267.3	1239.2	1211.4	1183.8	1156.5	1129.3
x2 = 0.8999	1286.3	1255.9	1226.3	1197.1	1168.1	1139.2	–
x2 = 0.9499	1279.8	1247.3	1215.6	–	–	–	1092

CC[n+]1ccn(C)c1.O=S(=O)([O-])C(F)(F)F + CCO
speed of sound [m/s]
Conditions	278.15 K	288.15 K	298.15 K	308.15 K	318.15 K	328.15 K
x2 = 0.0508	1475.9	1452.2	1429.4	1407	1385.2	1363.9
x2 = 0.0983	–	–	1422.7	1400.4	–	1357.6
x2 = 0.1483	1461.9	1438.3	–	1393.1	1371.1	1349.8
x2 = 0.198	–	1430.7	–	–	–	–
x2 = 0.3072	1435.9	–	1389.3	1366.7	1344.6	–
x2 = 0.4068	1416.2	1392.4	1369.2	1346.4	1323.9	1301.8
x2 = 0.4985	1394.8	1370.6	1346.9	1323.6	–	–
x2 = 0.5999	1366.8	–	1318	1294.2	–	1247.7
x2 = 0.6991	–	1308.5	1283.7	1259.2	1235.1	1211.2
x2 = 0.8001	–	–	1241.7	1215.7	1189.9	1164.3
x2 = 0.8497	1273.5	1245.6	1218.2	–	1164.7	1138.4
x2 = 0.9	1252.7	1223.1	–	–	1137.5	–
x2 = 0.9501	1233	1201.1	1170.1	1139.4	1109.1	1079.2

CC[n+]1ccn(C)c1.O=S(=O)([O-])C(F)(F)F + O
speed of sound [m/s]
Conditions	278.15 K	288.15 K	298.15 K	308.15 K	318.15 K	328.15 K	338.15 K
x1 = 0.0178	1510.5	1529	1541.8	1549.8	–	1553.1	1548.9
x2 = 0.0502	1482.9	1459.7	1437.1	1415	1393.3	1371.8	–
x2 = 0.1058	1484.8	1461.7	1439.2	–	1395.5	–	1352.9
x2 = 0.1504	1486.6	–	1441	1418.9	1397	–	1354.2
x2 = 0.249	–	1468.2	1445.9	1424	1402.3	1380.8	1359.5
x2 = 0.3004	1494	1471.3	1449.1	1427.2	–	–	–
x2 = 0.3524	–	1474.8	1452.7	1430.8	1409.2	–	1366.2
x2 = 0.3961	–	1478.3	1456.2	1434.4	1412.7	1391.2	1369.7
x2 = 0.4505	1505.3	1483	–	1439.3	1417.7	1396.2	1374.7
x2 = 0.5024	1510.7	–	1466.7	–	1423.4	1401.7	1380
x2 = 0.5502	1516.2	1494.3	1472.6	1451	1429.3	–	–
x2 = 0.6	–	1501.1	1479.6	1458.1	–	1414.9	1393
x2 = 0.6502	1530.5	1509.2	1488	1466.7	1445.3	1423.6	1401.7
x2 = 0.702	1539.8	1519.2	1498.4	–	1456.1	1434.6	1412.9
x2 = 0.7493	1549	1529.2	1509.1	–	1467.8	1446.5	1424.7
x2 = 0.7998	–	–	1522.5	1503.1	1483	1462.2	1440.7
x2 = 0.8499	1569.5	1554.1	1537.6	1520.1	1501.5	1482	–
x2 = 0.8996	–	1564.9	1552.9	1539.1	1523.7	1506.7	1488.2
x2 = 0.9498	–	1563.7	1561.1	1555.7	1547.7	1537.1	1524.2

CC[n+]1ccn(C)c1.O=S(=O)([O-])C(F)(F)F + CO
speed of sound [m/s]
Conditions	278.15 K	288.15 K	298.15 K	308.15 K	318.15 K
x2 = 0.0511	1477.5	1454	1431.1	1408.8	1387
x2 = 0.1016	1472	1448.7	–	1403.7	1382
x2 = 0.1557	1466.4	1443	–	1398	1376.2
x2 = 0.2035	–	–	1414.4	1392	1370.1
x2 = 0.3006	1447.8	–	1401.5	1379.1	1357.3
x2 = 0.3988	1432.7	–	1386	1363.4	1341.2
x2 = 0.5074	1411.3	–	–	1341.7	1319.4
x2 = 0.5993	1388.7	1364.7	1341.2	1318.2	1295.5
x2 = 0.6995	1356.5	1332	1308	–	1261.2
x2 = 0.8001	1312.5	1287.1	1262.1	–	1213.5
x2 = 0.8498	1285	1258.6	1232.8	1207.4	1182.5
x2 = 0.8995	1253.3	1225.3	1198	1171.2	1144.8
x2 = 0.9495	–	1186	–	–	1099.2
